What was measured:
[1] = Detection of encapsulation efficiency, drug loading concentration and total RNA concentration (RiboGreen); assay type: physicochemical
Source text: Encapsulation efficiency is a key quality attribute of liposomes, which refers to the percentage of drug content encapsulated in the lipid bimolecular layer accounting for the total drug dose and can reflect the degree of drug encapsulation in liposomes. The Chinese Pharmacopoeia stipulates that the encapsulation efficiency should generally not be less than 80%.
The drug loading amount is the ratio of the amount of drug in the liposome to the total amount of drug and carrier in the liposome. The drug loading amount directly affects the clinical application dose of the drug. […] The drug loading concentration is proportional to the drug loading amount, and the relative proportion of the drug loading concentrations can represent the relative proportion of the drug loading amounts. The relative ratio of the total RNA concentrations may represent the relative ratio of the amounts of mRNA carried by the LNP formulations.
1×TE buffer, 0.1% Triton X-100 buffer, RiboGreen reagent (1: 200) and mRNA standard stock solution were prepared.
An appropriate amount of the sample was added to an appropriate amount of 1×TE buffer, and the mixture was diluted to obtain a solution containing approximately […] sample per 1 mL. Then the sample was added to a 96-well plate, and 50 μL of the diluted test sample or the mRNA standard stock solution was added to each well, then 1×TE buffer and 0.1% Triton X-100 buffer were added. The sample was incubated at 37° C. for 10 minutes, and 100 μL RiboGreen reagent (1:200) was added to each well of the test sample in the 96-well plate. The sample was centrifugated, and the data were read using a microplate reader, and processed.

293T cells [2] = assay: Fluorescent detection of Fluc-mRNA (cell transfection efficiency of LNP formulations); assay type: cell-based
Experimental: Seeding plate: The cells in the culture dish were digested and counted. Cells were spread in a 96-well plate at 10,000 cells per well and in a 12-well plate at 150,000 cells per well. Cells were cultured overnight until the cells adhered to the wall.
The corresponding reagents were added according to the instructions of the Gaussia Luciferase Assay Kit, and the fluorescence expression intensity of each well was detected by an IVIS fluorescence detection system.

female BALB/C mice = assay: In vivo imaging in mice of Fluc-mRNA LNP formulations (mRNA expression and duration)
Experimental: The LNP formulation (prepared according to Example 4) containing […] Fluc-mRNA was injected intramuscularly into female BALB/C mice aged 4-6 weeks and weighed 17-19 g, and the mice were intraperitoneally injected with fluorescent imaging substrate at specific time points after administration (6h, 24 h, 48h and 7d), where the mice were allowed to free move for 5 minutes, and then the average radiation intensity (corresponding to fluorescence expression intensity) of the protein expression of the mRNA carried by the LNP in the mice was detected by the IVIS Spectrum small animal in vivo imaging system.

293T cells [3] = assay: Fluorescent detection of Fluc-mRNA (cell transfection efficiency of LNP formulations); assay type: cell-based; remark: listed apart in the source
[4] = LNP formulation prepared from the cationic lipid

## CCCCCCCCC(CCCCCCCC)COC(=O)CCCCCN(CCCO)CCCN(CCCO)CCCCCC(=O)OCC(CCCCCCCC)CCCCCCCC [YK-423, di(2-octyldecyl) 6,6′-(propan-1,3-diyl-bis((3-hydroxypropyl)azanediyl))dihexanoate]
[1]; [4]
  Drug loading concentration: 37.47 µg/mL
  Encapsulation efficiency: 89.7%
  Total RNA concentration: 41.00 µg/mL
[1]; difference vs ALC-0315
  encapsulation efficiency higher than ALC-0315: 26.4%
[1]; difference vs HIMA (HHMA)
  encapsulation efficiency higher than HIMA: 29.5%
[1]; difference vs SM-102
  encapsulation efficiency higher than SM-102: 26.8%
[1]; difference vs YK-009
  encapsulation efficiency higher than YK-009: 26.3%
[1]; difference vs compound 21
  encapsulation efficiency higher than compound 21: 31.7%
[1]; difference vs compound 23
  encapsulation efficiency higher than compound 23: 33.5%
[1]; ratio vs ALC-0315
  drug loading concentration, times that of ALC-0315: 1.39
  total RNA concentration, times that of ALC-0315: 1.08
[1]; ratio vs HIMA (HHMA)
  drug loading concentration, times that of HIMA: 1.15
  total RNA concentration, times that of HIMA: 1.13
[1]; ratio vs SM-102
  drug loading concentration, times that of SM-102: 1.41
  total RNA concentration, times that of SM-102: 1.14
[1]; ratio vs YK-009
  drug loading concentration, times that of YK-009: 1.36
  total RNA concentration, times that of YK-009: 1.06
[1]; ratio vs compound 21
  drug loading concentration, times that of compound 21: 1.71
  total RNA concentration, times that of compound 21: 1.42
[1]; ratio vs compound 23
  drug loading concentration, times that of compound 23: 1.87
  total RNA concentration, times that of compound 23: 1.32
293T cells [2]; LNP with 0.3 μg Fluc-mRNA, 96-well plate, 24 hours
  Relative light unit (RLU): 6227115 RLU
293T cells [2]; ratio vs YK-415
  cell transfection efficiency, times that of YK-415: 20.89
293T cells [2]; ratio vs YK-417
  cell transfection efficiency, times that of YK-417: 53.09
293T cells [2]; ratio vs YK-418
  cell transfection efficiency, times that of YK-418: 55.97
293T cells [2]; ratio vs YK-424
  cell transfection efficiency, times that of YK-424: 2.16
293T cells [2]; ratio vs compound 21
  RLU value, times that of compound 21: 4.12
293T cells [2]; ratio vs compound 23
  RLU value, times that of compound 23: 4.44
Female BALB/C mice; 6 h
  average radiation intensity, times that of ALC-0315: 1.94
  average radiation intensity, times that of HHMA: 2.46
  average radiation intensity, times that of SM-102: 2.35
  average radiation intensity, times that of compound 21: 2.71
  average radiation intensity, times that of compound 23: 2.80
  expression amount in mice, times that of YK-415: 13.81
  expression amount in mice, times that of YK-417: 26.91
  mRNA expression in mice, times that of YK-411: 278.19
Female BALB/C mice; 24 h
  average radiation intensity, times that of ALC-0315: 3.99
  average radiation intensity, times that of HHMA: 6.30
  average radiation intensity, times that of SM-102: 6.13
  average radiation intensity, times that of compound 21: 6.81
  average radiation intensity, times that of compound 23: 7.49
  expression amount in mice, times that of YK-415: 11.73
  expression amount in mice, times that of YK-417: 37.85
  mRNA expression in mice, times that of YK-411: 374.12
Female BALB/C mice; 48 h
  average radiation intensity, times that of ALC-0315: 8.73
  average radiation intensity, times that of HHMA: 10.50
  average radiation intensity, times that of SM-102: 10.65
  average radiation intensity, times that of compound 21: 11.10
  average radiation intensity, times that of compound 23: 10.64
  expression amount in mice, times that of YK-415: 22.17
  expression amount in mice, times that of YK-417: 49.70
  mRNA expression in mice, times that of YK-411: 359.10
Female BALB/C mice; 7 d
  average radiation intensity, times that of ALC-0315: 1.44
  average radiation intensity, times that of HHMA: 1.69
  average radiation intensity, times that of SM-102: 1.50
  average radiation intensity, times that of compound 21: 1.58
  average radiation intensity, times that of compound 23: 1.65
  expression amount in mice, times that of YK-415: 2.50
  expression amount in mice, times that of YK-417: 4.42
  mRNA expression in mice, times that of YK-411: 21.03
Female BALB/C mice; Fluc-mRNA LNP intramuscular, 6 h after administration
  average radiation intensity, 6 h: 1627420
Female BALB/C mice; Fluc-mRNA LNP intramuscular, 24 h after administration
  average radiation intensity, 24 h: 756472
Female BALB/C mice; Fluc-mRNA LNP intramuscular, 48 h after administration
  average radiation intensity, 48 h: 350120
Female BALB/C mice; Fluc-mRNA LNP intramuscular, 7 d after administration
  average radiation intensity, 7 d: 10093
293T cells [3]; ratio vs ALC-0315
  RLU value, times that of ALC-0315: 2.84
293T cells [3]; ratio vs HHMA
  RLU value, times that of HHMA: 3.00
293T cells [3]; ratio vs Lipofectamine 3000
  RLU value, times that of Lipofectamine 3000: 5.19
293T cells [3]; ratio vs YK-009
  RLU value, times that of YK-009: 1.21
293T cells [3]; ratio vs YK-405
  RLU value, times that of YK-405: 1.95
293T cells [3]; ratio vs YK-406
  RLU value, times that of YK-406: 79.58
293T cells [3]; ratio vs YK-408
  RLU value, times that of YK-408: 4.22
293T cells [3]; ratio vs YK-409
  RLU value, times that of YK-409: 9.30
293T cells [3]; ratio vs YK-410
  RLU value, times that of YK-410: 15.27
293T cells [3]; ratio vs YK-412
  cell transfection efficiency, times that of YK-412: 1.85
293T cells [3]; ratio vs YK-413
  cell transfection efficiency, times that of YK-413: 4.52
293T cells [3]; ratio vs YK-414
  cell transfection efficiency, times that of YK-414: 14.02
293T cells [3]; ratio vs YK-416
  cell transfection efficiency, times that of YK-416: 1.57
293T cells [3]; ratio vs YK-419
  cell transfection efficiency, times that of YK-419: 1.97
293T cells [3]; ratio vs YK-420
  cell transfection efficiency, times that of YK-420: 1.55
293T cells [3]; ratio vs YK-421
  cell transfection efficiency, times that of YK-421: 13.35
